Measurements from ChEMBL document CHEMBL6120955, “Computationally Driven Discovery of a BCR-ABL1 Kinase Inhibitor with Activity in Multidrug-Resistant Chronic Myeloid Leukemia” (J Med Chem, 2024).
The source made the active and inactive calls. No cut-off for these calls is given here.

How the values were obtained:
Homo sapiens = organism: Homo sapiens; assay: Binding affinity to human PDGFR at 1 uM by KINOMEscan analysis
[1] = Stability in human hepatocytes; assay type: ADME, cell-based, Hepatocyte
[2] = Stability in mouse hepatocytes; assay type: ADME, cell-based, Hepatocyte
[3] = target: Mast/stem cell growth factor receptor Kit (Homo sapiens) (UniProt P10721); assay: Binding affinity to human KIT at 1 uM by KINOMEscan analysis
Chain of Mast/stem cell growth factor receptor Kit (Homo sapiens) (P10721 whole entry): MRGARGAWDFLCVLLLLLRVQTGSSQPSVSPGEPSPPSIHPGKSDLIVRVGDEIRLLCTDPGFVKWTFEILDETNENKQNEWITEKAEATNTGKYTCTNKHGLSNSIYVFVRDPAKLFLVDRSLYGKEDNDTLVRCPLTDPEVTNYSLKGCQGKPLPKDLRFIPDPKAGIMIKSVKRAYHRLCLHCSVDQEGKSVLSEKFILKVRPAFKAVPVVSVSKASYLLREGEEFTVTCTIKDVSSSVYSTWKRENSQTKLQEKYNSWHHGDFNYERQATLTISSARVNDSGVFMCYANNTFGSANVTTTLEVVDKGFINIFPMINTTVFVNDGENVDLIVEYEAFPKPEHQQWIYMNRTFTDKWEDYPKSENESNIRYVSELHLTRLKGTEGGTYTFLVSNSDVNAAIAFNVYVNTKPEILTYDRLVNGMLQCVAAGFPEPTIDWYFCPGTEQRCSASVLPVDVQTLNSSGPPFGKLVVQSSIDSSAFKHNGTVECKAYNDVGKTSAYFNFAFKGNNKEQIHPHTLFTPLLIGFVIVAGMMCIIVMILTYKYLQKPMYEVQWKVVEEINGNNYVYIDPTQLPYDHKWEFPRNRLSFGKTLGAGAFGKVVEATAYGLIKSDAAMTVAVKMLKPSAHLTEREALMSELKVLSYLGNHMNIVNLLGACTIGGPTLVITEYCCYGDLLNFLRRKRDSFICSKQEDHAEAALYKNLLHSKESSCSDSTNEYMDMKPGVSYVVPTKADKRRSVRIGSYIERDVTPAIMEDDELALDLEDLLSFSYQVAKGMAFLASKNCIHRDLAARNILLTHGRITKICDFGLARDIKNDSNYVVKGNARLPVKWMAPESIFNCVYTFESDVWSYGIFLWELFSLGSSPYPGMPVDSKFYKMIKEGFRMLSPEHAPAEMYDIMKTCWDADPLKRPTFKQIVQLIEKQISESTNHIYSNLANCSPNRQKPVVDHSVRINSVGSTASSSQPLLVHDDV

in vitro = conditions: dog, MDCK-MDR1

Row | inhibition (Homo sapiens) | Stability [1] | Stability [2] | inhibition [3] | efflux ratio (in vitro) | SMILES
1 | inactive | Stable | Stable | inactive | – | COc1cc2c(Nc3ccc(Cl)c(OC)n3)c(C#N)cnc2cc1OCCON1CCN(C)CC1
2 | – | – | – | – | 0.9 | COc1cc2ncnc(Nc3cccc(Cl)c3F)c2cc1OCCON1CCN(C)CC1
